Experimental data: patent US20080299101A1, “Cancer Treatment Resistance and Agents Modulating Such Resistance” (CENTRE NATIONAL DE LA RECHERCHE SCIENTIFIQUE (CNRS INSTITUT …, priority 2004, published 2008)
“Also recorded” adds a separate entry of the source. *1 amine or outer side, *2 acyl side, *3 side chain or, on linkers, in order; H or OH if unused. Where a SMILES comes first, the peptide text is derived from it. Bridges are numbered along the chain shown (N, C = ends). Roman numbers before positions name the chains, in order. [ ]: non-standard residue; d: D form. Actinocin(9to1) = Cc1c2oc3c(C)ccc(C(=O)[*:1])c3nc-2c(C(=O)[*:2])c(N)c1=O; NMeV = CN[C@H](C(=O)O)C(C)C; Sar = CNCC(=O)O

Assays:
[1] = system: HCT116/R1; conditions: oxaliplatin 0 μM (actD alone)
Experimental: (§1) Cytotoxicity assays were performed by seeding 4000 cells per well in 96 well plates. […] Cytotoxicity measurements were carried out using the WST-1 colorimetric assay (Boehringer Mannheim) according to the manufacturer's recommendation.

[2] = system: HCT116/R2; conditions: oxaliplatin 0 μM (actD alone)
Experimental: as §1

[3] = system: HCT116/S; conditions: oxaliplatin 0 μM (actD alone)
Experimental: as §1

[4] = system: HCT116/S, HCT116/R1, HCT116/R2; experiment: Modulation of oxaliplatin cytotoxicity using actinomycin D preincubation (statement in words); format: cell-based; conditions: preincubation at moderately toxic concentrations; preliminary

## Cc1c2oc3c(C)ccc(C(=O)N[C@@H]4C(=O)N[C@H](C(C)C)C(=O)N5CCC[C@H]5C(=O)N(C)CC(=O)N(C)[C@@H](C(C)C)C(=O)O[C@@H]4C)c3nc-2c(C(=O)N[C@@H]2C(=O)N[C@H](C(C)C)C(=O)N3CCC[C@H]3C(=O)N(C)CC(=O)N(C)[C@@H](C(C)C)C(=O)O[C@@H]2C)c(N)c1=O [actD, actinomycin D] (I: T[dV]P[Sar][NMeV] / II: T[dV]P[Sar][NMeV]; ester I:1-I:C, II:1-II:C; linker I:N-II:N via Actinocin(9to1))
[1]; actD 0.04 nM
  Cytotoxicity of oxali + actD 0.04 nM: 17.3%
[1]; actD 0.12 nM
  Cytotoxicity of oxali + actD 0.12 nM: 18%
[2]; actD 0.04 nM
  Cytotoxicity of oxali + actD 0.04 nM: 20.6%
[2]; actD 0.12 nM
  Cytotoxicity of oxali + actD 0.12 nM: 17.7%
[2]; actD 0.36 nM
  Cytotoxicity of oxali + actD 0.36 nM: 21.6%
[3]; actD 0.04 nM
  Cytotoxicity of oxali + actD 0.04 nM: 9.1%
[3]; actD 0.12 nM
  Cytotoxicity of oxali + actD 0.12 nM: 27.6%
[3]; actD 0.36 nM
  Cytotoxicity of oxali + actD 0.36 nM: 85.4%
[4]
  Effect of actinomycin D preincubation on oxaliplatin activity: synergy effect; also recorded: synergistic effect
